From ChEMBL document CHEMBL5058646 (2022)

Assays:
[1] = target: Calcium/calmodulin-dependent protein kinase type II subunit beta (Homo sapiens) (UniProt Q13554); test: CAMK2B SGC Tm panel (DSF); conditions: Compound concentration 20.0 uM
[2] = target: Phosphorylase b kinase gamma catalytic chain, liver/testis isoform (Homo sapiens) (UniProt P15735); test: PHKG2 SGC Tm panel (DSF); conditions: Compound concentration 20.0 uM
[3] = target: Cyclin-dependent kinase 16 (Homo sapiens) (UniProt Q00536); test: PCTK1 SGC Tm panel (DSF); conditions: Compound concentration 20.0 uM
[4] = target: Transcription initiation factor TFIID subunit 1 (Homo sapiens) (UniProt P21675); test: TAF1 SGC Tm panel (DSF); conditions: Compound concentration 20.0 uM
[5] = target: Serine/threonine-protein kinase pim-3 (Homo sapiens) (UniProt Q86V86); test: PIM3 SGC Tm panel (DSF); conditions: Compound concentration 20.0 uM
[6] = target: 5-hydroxytryptamine receptor 3A (Homo sapiens) (UniProt P46098); conditions: Compound concentration 10.0 uM
[7] = target: Peripheral plasma membrane protein CASK (Homo sapiens) (UniProt O14936); test: CASK SGC Tm panel (DSF); conditions: Compound concentration 20.0 uM
[8] = target: T1, Zinc finger and BTB domain-containing protein 11 (Homo sapiens) (UniProt O95625); conditions: SUD4, Compound concentration 1.0 uM
T1 sequence (whole entry): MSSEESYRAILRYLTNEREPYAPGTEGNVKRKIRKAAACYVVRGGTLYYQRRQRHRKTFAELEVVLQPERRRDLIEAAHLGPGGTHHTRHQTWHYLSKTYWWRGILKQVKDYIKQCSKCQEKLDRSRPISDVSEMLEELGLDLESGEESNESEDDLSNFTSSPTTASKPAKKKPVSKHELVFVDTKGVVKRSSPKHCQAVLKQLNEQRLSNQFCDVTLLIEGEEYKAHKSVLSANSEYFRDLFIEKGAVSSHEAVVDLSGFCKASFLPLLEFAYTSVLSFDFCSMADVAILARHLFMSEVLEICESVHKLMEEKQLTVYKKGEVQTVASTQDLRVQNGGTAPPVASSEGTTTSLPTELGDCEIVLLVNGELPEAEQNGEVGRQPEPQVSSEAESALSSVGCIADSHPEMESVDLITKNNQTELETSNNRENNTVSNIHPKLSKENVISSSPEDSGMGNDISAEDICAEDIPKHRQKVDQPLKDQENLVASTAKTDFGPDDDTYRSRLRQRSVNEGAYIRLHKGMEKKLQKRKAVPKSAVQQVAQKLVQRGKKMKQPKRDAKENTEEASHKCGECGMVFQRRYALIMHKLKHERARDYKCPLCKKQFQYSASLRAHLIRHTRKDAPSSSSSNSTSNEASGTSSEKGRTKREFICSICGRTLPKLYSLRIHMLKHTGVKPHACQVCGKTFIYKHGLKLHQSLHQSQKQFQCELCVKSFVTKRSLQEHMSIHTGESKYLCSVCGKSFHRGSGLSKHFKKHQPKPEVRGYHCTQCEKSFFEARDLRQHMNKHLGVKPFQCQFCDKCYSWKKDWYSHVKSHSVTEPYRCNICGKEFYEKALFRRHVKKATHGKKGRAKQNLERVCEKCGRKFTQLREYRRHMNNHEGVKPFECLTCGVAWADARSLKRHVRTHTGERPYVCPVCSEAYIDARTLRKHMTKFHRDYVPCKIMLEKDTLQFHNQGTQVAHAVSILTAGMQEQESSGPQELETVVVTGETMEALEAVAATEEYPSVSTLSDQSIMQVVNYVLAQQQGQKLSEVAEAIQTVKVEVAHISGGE

[9] = target: T2, Zinc finger and BTB domain-containing protein 1 (Homo sapiens) (UniProt Q9Y2K1); conditions: OCI-Ly1, Compound concentration 1.0 uM
T2 sequence (whole entry): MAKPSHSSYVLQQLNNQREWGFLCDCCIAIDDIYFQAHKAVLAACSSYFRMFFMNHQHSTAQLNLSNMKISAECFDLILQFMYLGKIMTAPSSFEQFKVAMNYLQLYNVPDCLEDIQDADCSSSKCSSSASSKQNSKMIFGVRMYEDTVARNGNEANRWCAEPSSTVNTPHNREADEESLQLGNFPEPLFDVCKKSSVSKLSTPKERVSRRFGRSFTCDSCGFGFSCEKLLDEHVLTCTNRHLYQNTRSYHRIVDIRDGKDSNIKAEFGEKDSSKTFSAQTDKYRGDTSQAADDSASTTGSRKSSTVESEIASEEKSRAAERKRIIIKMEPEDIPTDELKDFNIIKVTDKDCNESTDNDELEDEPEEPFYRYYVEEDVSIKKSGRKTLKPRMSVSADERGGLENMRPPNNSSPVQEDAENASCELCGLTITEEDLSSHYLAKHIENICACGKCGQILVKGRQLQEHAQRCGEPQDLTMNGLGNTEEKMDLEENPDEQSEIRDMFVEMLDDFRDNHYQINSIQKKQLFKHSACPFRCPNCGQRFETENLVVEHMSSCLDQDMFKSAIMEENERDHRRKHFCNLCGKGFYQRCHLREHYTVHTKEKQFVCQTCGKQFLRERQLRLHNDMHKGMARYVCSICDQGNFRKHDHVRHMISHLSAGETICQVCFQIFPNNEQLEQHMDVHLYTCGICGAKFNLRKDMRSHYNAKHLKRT

[10] = target: Alpha-2A adrenergic receptor (Homo sapiens) (UniProt P08913); conditions: Compound concentration 10.0 uM
[11] = target: Zinc finger and BTB domain-containing protein 43 (Homo sapiens) (UniProt O43298); conditions: SUD4, Compound concentration 1.0 uM
[12] = target: 5-hydroxytryptamine receptor 2B (Homo sapiens) (UniProt P41595); conditions: Compound concentration 10.0 uM
Myoneurin (Homo sapiens) = Myoneurin (Homo sapiens) (UniProt Q9NPC7); conditions: SUD4, Compound concentration 1.0 uM
[13] = target: Mitogen-activated protein kinase 9 (Homo sapiens) (UniProt P45984); test: MAPK9 SGC Tm panel (DSF); conditions: Compound concentration 20.0 uM
[14] = target: Serine/threonine-protein kinase RIO1 (Homo sapiens) (UniProt Q9BRS2); test: RIOK1 SGC Tm panel (DSF); conditions: Compound concentration 20.0 uM
[15] = target: Cyclin-dependent kinase 2 (Homo sapiens) (UniProt P24941); test: CDK2 SGC Tm panel (DSF); conditions: Compound concentration 20.0 uM
[16] = target: Muscarinic acetylcholine receptor M1 (Homo sapiens) (UniProt P11229); conditions: Compound concentration 10.0 uM
[17] = target: Protein archease (Homo sapiens) (UniProt Q8IWT0); conditions: SUD4, Compound concentration 1.0 uM
Chain of Protein archease (Homo sapiens) (Q8IWT0 whole entry): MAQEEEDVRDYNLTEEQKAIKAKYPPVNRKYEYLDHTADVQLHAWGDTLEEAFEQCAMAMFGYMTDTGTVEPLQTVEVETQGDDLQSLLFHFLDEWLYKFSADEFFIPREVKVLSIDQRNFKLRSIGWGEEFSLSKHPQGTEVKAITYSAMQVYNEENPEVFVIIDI

Chain of Transcription initiation factor TFIID subunit 1 (Homo sapiens) (P21675 whole entry): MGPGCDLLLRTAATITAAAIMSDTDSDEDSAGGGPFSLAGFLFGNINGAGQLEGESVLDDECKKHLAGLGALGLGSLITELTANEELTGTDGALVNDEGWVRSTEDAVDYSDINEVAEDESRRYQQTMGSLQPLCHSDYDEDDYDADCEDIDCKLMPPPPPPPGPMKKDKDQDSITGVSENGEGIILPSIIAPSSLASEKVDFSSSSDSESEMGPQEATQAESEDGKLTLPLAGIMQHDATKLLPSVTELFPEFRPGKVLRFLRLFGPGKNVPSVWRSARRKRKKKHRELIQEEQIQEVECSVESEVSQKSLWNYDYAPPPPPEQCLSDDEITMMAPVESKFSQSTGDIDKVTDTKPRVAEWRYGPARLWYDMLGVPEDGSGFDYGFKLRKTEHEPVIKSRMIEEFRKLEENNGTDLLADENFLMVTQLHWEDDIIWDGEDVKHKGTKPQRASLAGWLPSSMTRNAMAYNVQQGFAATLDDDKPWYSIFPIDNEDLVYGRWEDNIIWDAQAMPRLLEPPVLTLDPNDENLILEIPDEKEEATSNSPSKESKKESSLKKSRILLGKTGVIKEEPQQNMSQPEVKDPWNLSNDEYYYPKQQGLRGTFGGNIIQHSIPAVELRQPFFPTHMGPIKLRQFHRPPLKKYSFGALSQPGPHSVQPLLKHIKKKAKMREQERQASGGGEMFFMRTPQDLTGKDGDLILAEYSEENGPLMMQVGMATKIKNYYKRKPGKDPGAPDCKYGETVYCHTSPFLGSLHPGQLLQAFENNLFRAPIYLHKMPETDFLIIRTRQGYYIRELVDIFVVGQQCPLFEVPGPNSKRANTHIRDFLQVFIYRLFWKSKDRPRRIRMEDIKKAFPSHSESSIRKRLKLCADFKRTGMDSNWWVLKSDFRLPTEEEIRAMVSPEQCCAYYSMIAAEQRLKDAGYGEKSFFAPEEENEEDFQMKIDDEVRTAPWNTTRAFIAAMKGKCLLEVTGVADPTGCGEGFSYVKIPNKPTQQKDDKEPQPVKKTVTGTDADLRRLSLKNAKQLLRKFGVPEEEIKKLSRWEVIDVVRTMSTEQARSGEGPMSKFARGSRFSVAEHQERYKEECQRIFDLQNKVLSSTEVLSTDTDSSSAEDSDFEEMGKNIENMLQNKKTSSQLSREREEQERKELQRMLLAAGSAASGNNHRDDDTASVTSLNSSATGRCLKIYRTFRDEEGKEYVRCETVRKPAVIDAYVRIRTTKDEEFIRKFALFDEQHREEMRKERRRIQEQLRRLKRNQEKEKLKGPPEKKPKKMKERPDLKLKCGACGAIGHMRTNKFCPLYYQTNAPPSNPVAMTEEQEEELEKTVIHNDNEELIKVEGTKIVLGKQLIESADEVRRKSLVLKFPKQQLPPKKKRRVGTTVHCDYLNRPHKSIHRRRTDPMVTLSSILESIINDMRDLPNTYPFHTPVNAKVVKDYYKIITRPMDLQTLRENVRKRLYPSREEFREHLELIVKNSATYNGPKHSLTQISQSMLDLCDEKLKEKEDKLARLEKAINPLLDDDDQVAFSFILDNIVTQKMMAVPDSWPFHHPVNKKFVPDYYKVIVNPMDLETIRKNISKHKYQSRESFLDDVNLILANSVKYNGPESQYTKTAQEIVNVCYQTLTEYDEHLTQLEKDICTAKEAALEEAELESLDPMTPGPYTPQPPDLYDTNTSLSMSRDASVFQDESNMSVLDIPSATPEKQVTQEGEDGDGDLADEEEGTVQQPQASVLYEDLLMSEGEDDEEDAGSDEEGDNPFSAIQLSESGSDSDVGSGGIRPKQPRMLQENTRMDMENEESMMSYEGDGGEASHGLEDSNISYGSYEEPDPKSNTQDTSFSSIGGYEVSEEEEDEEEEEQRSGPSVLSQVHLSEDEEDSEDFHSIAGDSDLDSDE
Chain of Myoneurin (Homo sapiens) (Q9NPC7 whole entry): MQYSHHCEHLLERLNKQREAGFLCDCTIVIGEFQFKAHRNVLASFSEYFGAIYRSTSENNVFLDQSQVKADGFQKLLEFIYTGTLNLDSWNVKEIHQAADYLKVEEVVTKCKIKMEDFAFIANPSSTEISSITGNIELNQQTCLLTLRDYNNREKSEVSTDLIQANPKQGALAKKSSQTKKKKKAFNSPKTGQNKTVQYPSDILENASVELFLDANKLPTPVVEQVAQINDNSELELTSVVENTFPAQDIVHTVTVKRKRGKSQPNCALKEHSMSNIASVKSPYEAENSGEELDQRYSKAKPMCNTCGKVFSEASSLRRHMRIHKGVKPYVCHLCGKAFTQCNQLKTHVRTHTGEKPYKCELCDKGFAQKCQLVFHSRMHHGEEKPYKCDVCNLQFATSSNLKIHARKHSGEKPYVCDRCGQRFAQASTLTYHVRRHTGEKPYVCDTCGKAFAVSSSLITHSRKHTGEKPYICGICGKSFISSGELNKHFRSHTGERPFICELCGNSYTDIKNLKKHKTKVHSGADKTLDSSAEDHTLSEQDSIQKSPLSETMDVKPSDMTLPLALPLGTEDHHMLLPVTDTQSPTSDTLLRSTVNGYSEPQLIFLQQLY
Chain of Alpha-2A adrenergic receptor (Homo sapiens) (P08913 whole entry, the tested form may be a part): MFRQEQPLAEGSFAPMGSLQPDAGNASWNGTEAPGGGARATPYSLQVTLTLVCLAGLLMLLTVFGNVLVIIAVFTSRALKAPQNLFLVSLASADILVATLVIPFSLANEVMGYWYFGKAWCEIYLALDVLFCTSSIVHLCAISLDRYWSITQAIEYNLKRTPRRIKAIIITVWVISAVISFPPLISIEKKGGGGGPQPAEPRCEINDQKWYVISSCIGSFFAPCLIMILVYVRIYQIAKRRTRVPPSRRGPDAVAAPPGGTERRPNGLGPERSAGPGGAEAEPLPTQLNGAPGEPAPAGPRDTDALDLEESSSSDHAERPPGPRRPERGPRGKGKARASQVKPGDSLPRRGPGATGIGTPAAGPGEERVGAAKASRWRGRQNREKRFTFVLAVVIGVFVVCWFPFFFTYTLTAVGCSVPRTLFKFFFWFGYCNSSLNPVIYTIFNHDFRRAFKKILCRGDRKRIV
Chain of Muscarinic acetylcholine receptor M1 (Homo sapiens) (P11229 whole entry): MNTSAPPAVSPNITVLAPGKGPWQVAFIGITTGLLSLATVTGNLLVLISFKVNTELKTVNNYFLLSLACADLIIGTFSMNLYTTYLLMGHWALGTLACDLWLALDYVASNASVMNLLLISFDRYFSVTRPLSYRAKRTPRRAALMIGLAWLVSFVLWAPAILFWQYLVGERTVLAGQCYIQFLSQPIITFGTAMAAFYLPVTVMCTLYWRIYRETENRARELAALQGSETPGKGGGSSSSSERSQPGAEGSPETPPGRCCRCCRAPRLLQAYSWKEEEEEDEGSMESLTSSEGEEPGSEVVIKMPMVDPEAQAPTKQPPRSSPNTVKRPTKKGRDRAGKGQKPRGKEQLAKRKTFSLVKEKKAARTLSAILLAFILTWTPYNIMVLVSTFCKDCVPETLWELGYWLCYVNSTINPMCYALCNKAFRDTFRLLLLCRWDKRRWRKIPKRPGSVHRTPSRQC
Chain of Calcium/calmodulin-dependent protein kinase type II subunit beta (Homo sapiens) (Q13554 whole entry, canonical isoform): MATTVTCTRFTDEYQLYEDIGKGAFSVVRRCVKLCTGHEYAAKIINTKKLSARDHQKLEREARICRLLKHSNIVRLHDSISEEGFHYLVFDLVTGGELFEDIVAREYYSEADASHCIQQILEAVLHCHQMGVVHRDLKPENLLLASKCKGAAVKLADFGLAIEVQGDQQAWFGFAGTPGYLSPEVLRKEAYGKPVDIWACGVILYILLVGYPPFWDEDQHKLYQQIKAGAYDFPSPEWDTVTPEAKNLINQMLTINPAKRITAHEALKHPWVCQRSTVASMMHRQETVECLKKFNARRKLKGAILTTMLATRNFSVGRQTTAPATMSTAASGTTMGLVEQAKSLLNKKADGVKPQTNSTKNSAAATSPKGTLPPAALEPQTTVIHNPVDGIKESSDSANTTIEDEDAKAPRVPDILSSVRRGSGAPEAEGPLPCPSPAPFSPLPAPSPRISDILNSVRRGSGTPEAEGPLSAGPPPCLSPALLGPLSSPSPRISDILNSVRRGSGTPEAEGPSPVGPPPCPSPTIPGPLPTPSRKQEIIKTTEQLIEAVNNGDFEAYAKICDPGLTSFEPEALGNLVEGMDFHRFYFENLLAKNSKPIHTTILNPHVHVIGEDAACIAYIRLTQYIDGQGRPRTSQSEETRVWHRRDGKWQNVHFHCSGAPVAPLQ
Chain of 5-hydroxytryptamine receptor 2B (Homo sapiens) (P41595 whole entry): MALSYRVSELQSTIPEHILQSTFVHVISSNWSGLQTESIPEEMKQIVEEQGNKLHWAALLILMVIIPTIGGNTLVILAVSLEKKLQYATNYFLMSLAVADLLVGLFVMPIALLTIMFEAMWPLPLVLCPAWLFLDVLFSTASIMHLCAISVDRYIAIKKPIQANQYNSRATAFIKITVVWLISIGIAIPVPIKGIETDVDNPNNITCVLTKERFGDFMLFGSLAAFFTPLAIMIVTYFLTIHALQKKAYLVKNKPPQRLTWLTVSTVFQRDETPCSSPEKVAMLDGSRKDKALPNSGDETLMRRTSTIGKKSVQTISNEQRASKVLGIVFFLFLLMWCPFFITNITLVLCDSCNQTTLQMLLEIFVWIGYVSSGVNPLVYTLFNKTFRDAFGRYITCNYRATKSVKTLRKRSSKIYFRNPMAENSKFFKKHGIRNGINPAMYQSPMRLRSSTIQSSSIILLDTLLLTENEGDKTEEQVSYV

C[C@@H]1CN(c2ncc(Cl)c(Nc3ccc4c(c3)n(CCC(C)(C)O)c(=O)n4C)n2)C[C@H](C)C1(F)F
inactive: Tm [1] 47 °C | Tm [2] 46 °C | Tm [3] 52 °C | Tm [4] 56 °C | Tm [5] 40 °C | inhibition [6] -5.81% | Tm [7] 68 °C | LogFC [8] 0.0341 | LogFC [9] -0.0612 | inhibition [10] 14% | LogFC [11] 0.0194 | inhibition [12] 34.6% | LogFC (Myoneurin (Homo sapiens)) -0.189 | Tm [13] 54 °C | Tm [14] 40 °C | Tm [15] 46 °C | inhibition [16] 3.3% | LogFC [17] 0.0264
